Experimental data as given in ChEMBL document CHEMBL1149067, “Ochrindoles A-D: new bis-indolyl benzenoids from the sclerotia of Aspergillus ochraceus NRRL 3519” (J Nat Prod, 1994).

What was measured:
Bacillus subtilis = experiment: Antimicrobial activity against Bacillus subtilis at 100 ug/disk by standard disk assay; format: functional; settings: read-out: IZ
Carpophilus = experiment: Toxicity against Carpophilus hemipterus assessed as feeding reduction at 200 ppm relative to control; format: organism-based; parameters: scale not given: the % may be the effect or the level left; settings: in vivo
Helicoverpa zea = experiment: Toxicity against Helicoverpa zea larvae assessed as weight gain relative to control; format: organism-based; settings: in vivo

Structure (SMILES) | zone of inhibition at 100 µg/disc (Bacillus subtilis) | Activity (Carpophilus) | Activity (Helicoverpa zea)
COc1c(CC=C(C)C)c(-c2c[nH]c3ccccc23)c(OC)c(O)c1-c1c[nH]c2ccccc12 [OCHRINDOLE A] | 15 mm | 20% | 30%
COc1c(C/C=C(\C)CO)c(-c2c[nH]c3ccccc23)c(OC)c(O)c1-c1c[nH]c2ccccc12 [OCHRINDOLE B] | 15 mm |  | 
COc1c(CC=C(C)C)c(-c2c[nH]c3ccccc23)c(O)c(O)c1-c1c[nH]c2ccccc12 [OCHRINDOLE C] | 15 mm |  | 
CC(C)=CCC1=C(c2c[nH]c3ccccc23)C(=O)C(O)=C(c2c[nH]c3ccccc23)C1=O [OCHRINDOLE D] | 15 mm |  | 
